BindingDB's records for doi:10.1021/jm00105a061 (Zambeletti Research Laboratories, 1991)
Where a name gives a salt, the structure may show the parent alone.

Tests used:
[1] = Compound was evaluated for its binding affinity against opioid receptor delta subtype in guinea pig brain (minus cerebellum) using [3H]-DADLE as radioligand.
[2] = Compound was evaluated for its binding affinity against Opioid receptor delta 1 subtype in guinea pig brain (minus cerebellum) using [3H]DADLE as radioligand.

SMILES: CN1CCCC1C1CCCCN1C(=O)Cc1ccc(Cl)c(Cl)c1 (stereo not drawn) [(threo)2-(3,4-Dichloro-phenyl)-1-[2-(1-methyl-pyrrolidin-2-yl)-piperidin-1-yl]-ethanone(HCl)]
- Ki [1]: > 10 µM

SMILES: O=C(Cc1ccc(Cl)c(Cl)c1)N1CCCCC1CN1CCCC1 (stereo not drawn)
- Ki [2]: > 10 µM

SMILES: O=C(Cc1ccc(O)cc1)N1CCCCC1CN1CCCC1 (stereo not drawn)
- Ki [1]: > 10 µM
